{"source": "patent US20120232046A1", "about": "“METHOD AND KIT FOR REDUCING THE SYMPTOMS OF PERIPHERAL VASCULAR DISEASE” (Dimera Incorporated, priority 2003, published 2012)", "type_in_all_cases": "cell-based, rhesus monkeys", "key": {"[1]": {"test_system": "isolated peripheral vascular muscle cells (VMC) from large arteries of the foreleg", "assay": "Averaged Ca2+ signals in nicotine-stimulated VMC", "conditions": "VMC pre-treated with wash of 4 ng/ml hormone; for decrease in peripheral-to-central Ca2+ localization ratio / peak of Ca2+ increase after nicotine stimulation: 10 μM nicotine; for peak of Ca2+ increase after nicotine stimulation: versus non-treatment group; for whole cell Ca2+ response to nicotine stimulation: stimulated with 10 μM nicotine", "text": "(§1) Single VMCs from large arteries of the foreleg of adult rhesus monkeys are isolated and studied both as freshly dispersed and as primary cultures. The short-term primary cultured cells (never passaged) maintain the characteristics of the source tissue for 2 to 3 weeks, including contraction, relaxation, receptors, and membrane electrical properties. VMCs are dissociated with collagenase and protease enzymes in a potassium glutamate solution (KG) that prevents loading with Na^+, Ca^2′, or Cl^− and results in a high proportion of viable, contracting cells. See, Self, D. A., et al., J. Vasc. Res. 31:359-366 (1994); and Rusch., N. J., et al., Physiology and Pathophysiology of the Heart, 999-1010 (1995), each of which is incorporated herein by reference. The cells prepared for culture are seeded at low density in cardiovascular culture solution for mammals, fifth generation (CV5M) on glass coverslips to facilitate selection of individual cells. VMCs are used for studies 7 to 14 days after attaching to coverslips.\n(§2) Freshly dispersed or primary cultured VMCs on glass coverslips are placed in a chamber of laminar flow design and observed with a high numerical aperture water immersion objective. Ionic solution for mammals version 2 (ISM2) is continuously pumped through the chamber (at 1 ml/minute) to provide continuous equilibration and washout of drugs. After a 15 minutes equilibration period, VMC are loaded for 15 minutes at room temperature with 3 μM fluo 3 (Molecular Probes, Inc.) for sensing Ca^2+ and for 10 minutes with 30-100 nM hypericin (LC Laboratories) for reporting PKC. Individual VMC are stimulated by adding 20 μl of 10 μM nicotine over the individual cell. After 15 seconds under no-flow conditions, continuous flow of ISM2 was reinstated and a chamber volume of approximately 300 μl was maintained. Fluorescent images are taken at 1, 2, 5, 10, 15, 20 and 30 minutes after stimulation for Ca^2+ and at 3, 4, 9, 16, 21 and 31 minutes for PKC to evaluate subcellular distribution of these signals, and to determine VMC contraction.\n(§3) ISM2 contains (in mM): 100 NaCl, 4 NaHCO3, 0.5 NaH2PO4, 4.7 KCl, 1.8 CaCl2, 0.41 […], 50 HEPES (pH 7.37), and 5.5 dextrose; KG solution contains (in mM); 140 K-glutamate, 16 NaHCO3, 0.5 NaH2PO4, 30 HEPES, and 16.5 dextrose at pH 7.3. CV5M contains: 4.0 mM L-glutamine, 10 μg/ml ciprofloxacin (Miles Pentex/Bayer Corporation), 50 mM HEPES (pH 7.3), and 16 mM NaHCO3 dissolved in 85% MEM-Earle's salts and 15% horse serum. Phenol red, known to have estrogenic activity, is omitted from all solutions.\nOne group of cells is pre-treated with a wash of 4 ng/ml of progesterone before stimulation with nicotine. A second group of cells is pre-treated with a wash of 4 ng/ml testosterone before stimulation. A third group of cells, the “non-treatment group”, is pre-treated with a wash of normal saline before stimulation. A fourth group of cells, which forms the control group, is pre-treated with a wash of normal saline and followed by “stimulation” with normal saline.\nNormalized (per pixel) changes in intracellular Ca^2+ levels are expressed as averages over whole VMC and as peripheral-to-central ratios. […] The ratio decreases because of Ca^2+ release from intracellular stores."}, "[2]": {"test_system": "isolated peripheral vascular muscle cells (VMC) from large arteries of the foreleg", "assay": "Averaged PKC signals in nicotine-stimulated VMC", "conditions": "VMC pre-treated with wash of 4 ng/ml hormone, 10 μM nicotine; for peripheral-to-central PKC ratio: versus control; for change of PKC loci or intensity after nicotine stimulation: versus control values", "text": "as §1, §2, §3\nOne group of cells is pre-treated with a wash of 4 ng/ml of progesterone before stimulation with nicotine. A second group of cells is pre-treated with a wash of 4 ng/ml testosterone before stimulation. […]"}, "[3]": {"test_system": "isolated peripheral vascular muscle cells (VMC) from large arteries of the foreleg", "assay": "Averaged contractions (cell width) of nicotine-stimulated VMC", "conditions": "primary cultured VMC pre-treated with wash of 4 ng/ml hormone, 10 μM nicotine; versus 0-min controls", "text": "as §1\nFreshly dispersed or primary cultured VMCs on glass coverslips are placed in a chamber of laminar flow design and observed with a high numerical aperture water immersion objective. […]\nNormalized changes in cell widths from primary cultured VMC is determined."}}, "data": [{"compound": "CC(=O)[C@H]1CC[C@H]2[C@@H]3CCC4=CC(=O)CC[C@]4(C)[C@H]3CC[C@]12C", "note": "[progesterone]", "values": [{"measurement": "decrease in peripheral-to-central Ca2+ localization ratio", "setting": "[1]", "value": "too small to be significant"}, {"measurement": "peak of Ca2+ increase after nicotine stimulation", "setting": "[1]", "value": "smaller peak than in the non-treatment group"}, {"measurement": "whole cell Ca2+ response to nicotine stimulation", "setting": "[1]", "value": "only transiently stimulated by nicotine"}, {"measurement": "peripheral-to-central PKC ratio", "setting": "[2]", "value": "never significantly different from control"}, {"measurement": "change of PKC loci or intensity after nicotine stimulation", "setting": "[2]", "value": "fails to change PKC loci or intensity significantly from control values"}, {"measurement": "VMC contractions (central cell widening)", "setting": "[3]", "value": "significantly different from 0-min controls only in the first few minutes following stimulation"}]}, {"compound": "C[C@]12CC[C@H]3[C@@H](CCC4=CC(=O)CC[C@@]43C)[C@@H]1CC[C@@H]2O", "note": "[testosterone]", "values": [{"measurement": "decrease in peripheral-to-central Ca2+ localization ratio", "setting": "[1]", "value": "too small to be significant"}, {"measurement": "peak of Ca2+ increase after nicotine stimulation", "setting": "[1]", "value": "smaller peak than in the non-treatment group"}, {"measurement": "whole cell Ca2+ response to nicotine stimulation", "setting": "[1]", "value": "only transiently stimulated by nicotine"}, {"measurement": "peripheral-to-central PKC ratio", "setting": "[2]", "value": "never significantly different from control"}, {"measurement": "change of PKC loci or intensity after nicotine stimulation", "setting": "[2]", "value": "fails to change PKC loci or intensity significantly from control values"}, {"measurement": "VMC contractions (central cell widening)", "setting": "[3]", "value": "significantly different from 0-min controls only in the first few minutes following stimulation"}]}]}
